Test results: PubChem BioAssay (NCI)
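All cell lines were grown in 96-well plates and treated with compound for 48 hours. TGI: concentration producing complete growth inhibition.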

How the values were obtained:
Assay in all cases: NCI tumour cell line growth inhibition, 48 h
[1] = tested on: 786-0 renal
[2] = tested on: A498 renal
[3] = tested on: A549 NSCLC
[4] = tested on: ACHN renal
[5] = tested on: CAKI-1 renal
[6] = tested on: CCRF-CEM leukemia
[7] = tested on: COLO 205 colon
[8] = tested on: DLD-1 colon
[9] = tested on: DMS 114 small cell lung
[10] = tested on: DMS 273 small cell lung
[11] = tested on: EKVX NSCLC
[12] = tested on: HCC-2998 colon
[13] = tested on: HCT-116 colon
[14] = tested on: HCT-15 colon
[15] = tested on: HL-60(TB) leukemia
[16] = tested on: HOP-18 NSCLC
[17] = tested on: HOP-62 NSCLC
[18] = tested on: HOP-92 NSCLC
[19] = tested on: HT29 colon
[20] = tested on: IGROV1 ovarian
[21] = tested on: K-562 leukemia
[22] = tested on: KM12 colon
[23] = tested on: KM20L2 colon
[24] = tested on: LOX IMVI melanoma
[25] = tested on: LXFL 529 NSCLC
[26] = tested on: M14 melanoma
[27] = tested on: M19-MEL melanoma
[28] = tested on: MALME-3M melanoma
[29] = tested on: MOLT-4 leukemia
[30] = tested on: NCI-H226 lung
[31] = tested on: NCI-H23 lung
[32] = tested on: NCI-H460 lung
[33] = tested on: NCI-H522 lung
[34] = tested on: OVCAR-3 ovarian
[35] = tested on: OVCAR-4 ovarian
[36] = tested on: OVCAR-5 ovarian
[37] = tested on: RPMI-8226 leukemia
[38] = tested on: RXF 393 renal
[39] = tested on: RXF-631 renal
[40] = tested on: SF-268 CNS
[41] = tested on: SF-295 CNS
[42] = tested on: SF-539 CNS
[43] = tested on: SK-MEL-2 melanoma
[44] = tested on: SK-MEL-28 melanoma
[45] = tested on: SK-MEL-5 melanoma
[46] = tested on: SK-OV-3 ovarian
[47] = tested on: SN12C renal
[48] = tested on: SNB-19 CNS
[49] = tested on: SNB-75 CNS
[50] = tested on: SNB-78 CNS
[51] = tested on: SR leukemia
[52] = tested on: SW-620 colon
[53] = tested on: TK-10 renal
[54] = tested on: U251 CNS
[55] = tested on: UACC-257 melanoma
[56] = tested on: UACC-62 melanoma
[57] = tested on: UO-31 renal
[58] = tested on: XF 498 CNS
[59] = tested on: OVCAR-8 ovarian
[60] = tested on: MCF7 breast
[61] = tested on: NCI/ADR-RES ovarian
[62] = tested on: P388 leukemia
[63] = tested on: SN12K1 renal

Nc1nncc2c1c(Br)cn2C1OC(CO)C(O)C1O (stereo unspecified)
TGI [1]: > 100 µM | TGI [2]: > 100 µM | TGI [3]: > 100 µM | TGI [4]: > 100 µM | TGI [5]: > 100 µM | TGI [6]: > 100 µM | TGI [7]: > 100 µM | TGI [8]: > 53 µM | TGI [9]: 62.6 µM | TGI [10]: > 100 µM | TGI [11]: > 100 µM | TGI [12]: > 100 µM | TGI [13]: > 100 µM | TGI [14]: > 100 µM | TGI [15]: > 100 µM | TGI [16]: > 100 µM | TGI [17]: > 100 µM | TGI [18]: 62.3 µM | TGI [19]: > 100 µM | TGI [20]: > 100 µM | TGI [21]: > 100 µM | TGI [22]: > 100 µM | TGI [23]: > 100 µM | TGI [24]: > 100 µM | TGI [25]: > 100 µM | TGI [26]: > 100 µM | TGI [27]: > 100 µM | TGI [28]: > 100 µM | TGI [29]: > 100 µM | TGI [30]: > 100 µM | TGI [31]: > 67.6 µM | TGI [32]: > 100 µM | TGI [33]: > 100 µM | TGI [34]: > 100 µM | TGI [35]: > 100 µM | TGI [36]: > 100 µM | TGI [37]: > 100 µM | TGI [38]: > 100 µM | TGI [39]: > 100 µM | TGI [40]: > 100 µM | TGI [41]: > 100 µM | TGI [42]: > 100 µM | TGI [43]: > 60.9 µM | TGI [44]: > 100 µM | TGI [45]: > 100 µM | TGI [46]: > 100 µM | TGI [47]: > 100 µM | TGI [48]: > 100 µM | TGI [49]: > 100 µM | TGI [50]: > 100 µM | TGI [51]: > 100 µM | TGI [52]: > 100 µM | TGI [53]: > 100 µM | TGI [54]: > 100 µM | TGI [55]: > 100 µM | TGI [56]: > 100 µM | TGI [57]: > 100 µM | TGI [58]: > 100 µM

CC(C)(C)N=CN1C=Cc2nc3ccccc3cc2C1
TGI [1]: > 100 µM | TGI [2]: > 100 µM | TGI [3]: > 100 µM | TGI [4]: > 100 µM | TGI [5]: > 100 µM | TGI [6]: > 100 µM | TGI [7]: > 100 µM | TGI [8]: > 100 µM | TGI [9]: > 100 µM | TGI [10]: > 100 µM | TGI [11]: > 100 µM | TGI [12]: > 100 µM | TGI [13]: > 100 µM | TGI [14]: > 100 µM | TGI [15]: > 100 µM | TGI [16]: > 100 µM | TGI [17]: > 100 µM | TGI [18]: > 100 µM | TGI [19]: > 100 µM | TGI [20]: > 100 µM | TGI [21]: > 100 µM | TGI [22]: > 100 µM | TGI [23]: > 100 µM | TGI [24]: 73.8 µM | TGI [25]: > 100 µM | TGI [26]: > 100 µM | TGI [27]: > 100 µM | TGI [28]: > 100 µM | TGI [29]: > 100 µM | TGI [31]: > 100 µM | TGI [32]: > 100 µM | TGI [33]: > 100 µM | TGI [34]: > 100 µM | TGI [35]: > 100 µM | TGI [36]: > 100 µM | TGI [59]: > 100 µM | TGI [38]: > 100 µM | TGI [39]: > 100 µM | TGI [40]: > 100 µM | TGI [41]: > 100 µM | TGI [42]: > 100 µM | TGI [43]: > 100 µM | TGI [44]: > 100 µM | TGI [45]: > 100 µM | TGI [46]: > 100 µM | TGI [47]: > 100 µM | TGI [48]: > 100 µM | TGI [49]: > 100 µM | TGI [50]: > 100 µM | TGI [51]: > 100 µM | TGI [52]: 49.2 µM | TGI [53]: > 100 µM | TGI [54]: > 100 µM | TGI [55]: > 100 µM | TGI [56]: > 100 µM | TGI [57]: > 100 µM | TGI [58]: > 100 µM

COc1ccc(N2C(=O)c3c(c4[nH]c5ccccc5c4c4ccc(C(C)(C)C)cc34)C2=O)cc1
TGI [1]: > 100 µM | TGI [2]: 77.1 µM | TGI [3]: > 100 µM | TGI [4]: > 100 µM | TGI [5]: > 100 µM | TGI [6]: 42.1 µM | TGI [7]: > 100 µM | TGI [8]: > 100 µM | TGI [9]: > 100 µM | TGI [10]: > 100 µM | TGI [11]: > 100 µM | TGI [12]: > 100 µM | TGI [13]: > 100 µM | TGI [14]: > 100 µM | TGI [16]: > 100 µM | TGI [17]: > 100 µM | TGI [18]: 64.2 µM | TGI [20]: > 100 µM | TGI [21]: > 100 µM | TGI [22]: > 100 µM | TGI [23]: > 100 µM | TGI [24]: > 100 µM | TGI [25]: > 100 µM | TGI [26]: > 100 µM | TGI [27]: > 100 µM | TGI [28]: > 100 µM | TGI [29]: 52 µM | TGI [30]: > 100 µM | TGI [31]: 51 µM | TGI [32]: > 100 µM | TGI [33]: > 100 µM | TGI [34]: 53.6 µM | TGI [35]: 52.9 µM | TGI [36]: > 100 µM | TGI [59]: 63.6 µM | TGI [38]: 98.1 µM | TGI [39]: > 100 µM | TGI [40]: 74.4 µM | TGI [41]: 92.9 µM | TGI [42]: > 100 µM | TGI [43]: 71.8 µM | TGI [44]: > 100 µM | TGI [45]: > 100 µM | TGI [46]: > 100 µM | TGI [47]: > 100 µM | TGI [48]: > 100 µM | TGI [49]: 35.4 µM | TGI [50]: 60 µM | TGI [51]: 57.2 µM | TGI [52]: > 100 µM | TGI [53]: > 100 µM | TGI [54]: 42.7 µM | TGI [55]: > 100 µM | TGI [56]: 48.3 µM | TGI [57]: > 100 µM | TGI [58]: 49.8 µM

C/C(=C/C(=O)Nc1ccccc1)Nc1onc(C)c1C
TGI [2]: > 100 µM | TGI [3]: > 100 µM | TGI [6]: > 100 µM | TGI [7]: > 100 µM | TGI [8]: > 100 µM | TGI [9]: > 100 µM | TGI [10]: > 100 µM | TGI [11]: > 100 µM | TGI [12]: > 100 µM | TGI [13]: > 100 µM | TGI [14]: > 100 µM | TGI [15]: > 100 µM | TGI [16]: > 100 µM | TGI [17]: > 100 µM | TGI [18]: > 100 µM | TGI [19]: > 100 µM | TGI [20]: > 100 µM | TGI [21]: > 100 µM | TGI [22]: > 100 µM | TGI [23]: > 100 µM | TGI [24]: > 100 µM | TGI [27]: > 100 µM | TGI [28]: > 100 µM | TGI [60]: > 100 µM | TGI [29]: > 100 µM | TGI [30]: > 100 µM | TGI [31]: > 100 µM | TGI [32]: > 100 µM | TGI [33]: > 100 µM | TGI [61]: > 100 µM | TGI [34]: > 100 µM | TGI [35]: > 100 µM | TGI [36]: > 100 µM | TGI [59]: > 100 µM | TGI [62]: > 100 µM | TGI [37]: > 100 µM | TGI [38]: > 100 µM | TGI [40]: > 100 µM | TGI [41]: > 100 µM | TGI [42]: > 100 µM | TGI [43]: > 100 µM | TGI [44]: > 100 µM | TGI [45]: > 100 µM | TGI [46]: > 100 µM | TGI [47]: > 100 µM | TGI [63]: > 100 µM | TGI [48]: > 100 µM | TGI [49]: > 100 µM | TGI [50]: > 100 µM | TGI [52]: > 100 µM | TGI [54]: > 100 µM | TGI [55]: > 100 µM | TGI [56]: > 100 µM | TGI [57]: > 100 µM | TGI [58]: > 100 µM
